Earlier results on two compounds are cited in patent publication US20220267753A1, “RATIONAL THERAPEUTIC TARGETING OF ONCOGENIC IMMUNE SIGNALING STATES IN MYELOID MALIGNANCIES VIA THE UBIQUITIN CONJUGATING ENZYME UBE2N” (CHILDREN'S HOSPITAL MEDICAL CENTER, priority 2019, published 2022).

The series addresses T1, UBE2N (Homo sapiens, UniProt P61088).
T1 sequence (P61088 1-152): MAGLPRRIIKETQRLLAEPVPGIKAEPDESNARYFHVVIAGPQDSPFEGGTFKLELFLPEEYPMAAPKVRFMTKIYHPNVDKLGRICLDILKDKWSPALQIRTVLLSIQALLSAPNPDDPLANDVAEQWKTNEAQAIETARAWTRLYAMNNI
The note with it: cited from earlier work; for inhibition of UBE2N by covalent reaction with Cys-87: reference [16]; for selectivity among cysteine-containing ubiquitin enzymes: references [23-25].

With `Cc1ccc(S(=O)(=O)/C=C/C#N)cc1` [BAY11-7082], the “inhibition of UBE2N by covalent reaction with Cys-87” value is on record as “irreversible inhibition of UBE2N” and the “selectivity among cysteine-containing ubiquitin enzymes” value is reported as “non-selective inhibitors”.

In the case of `Cc1ccc(S(=O)(=O)c2ccc([N+](=O)[O-])o2)cc1` [NSC697923, 2-(4-methylphenyl)sulfonyl-5-nitrofuran], the “inhibition of UBE2N by covalent reaction with Cys-87” value is on record as “irreversible inhibition of UBE2N” and the “selectivity among cysteine-containing ubiquitin enzymes” value is given as “non-selective inhibitors”.
